The target in data set [1] is T1, ATP-binding cassette subfamily G member 2 (ABCG2) (Homo sapiens, UniProt Q9UNQ0).
T1 sequence (Q9UNQ0 1-655): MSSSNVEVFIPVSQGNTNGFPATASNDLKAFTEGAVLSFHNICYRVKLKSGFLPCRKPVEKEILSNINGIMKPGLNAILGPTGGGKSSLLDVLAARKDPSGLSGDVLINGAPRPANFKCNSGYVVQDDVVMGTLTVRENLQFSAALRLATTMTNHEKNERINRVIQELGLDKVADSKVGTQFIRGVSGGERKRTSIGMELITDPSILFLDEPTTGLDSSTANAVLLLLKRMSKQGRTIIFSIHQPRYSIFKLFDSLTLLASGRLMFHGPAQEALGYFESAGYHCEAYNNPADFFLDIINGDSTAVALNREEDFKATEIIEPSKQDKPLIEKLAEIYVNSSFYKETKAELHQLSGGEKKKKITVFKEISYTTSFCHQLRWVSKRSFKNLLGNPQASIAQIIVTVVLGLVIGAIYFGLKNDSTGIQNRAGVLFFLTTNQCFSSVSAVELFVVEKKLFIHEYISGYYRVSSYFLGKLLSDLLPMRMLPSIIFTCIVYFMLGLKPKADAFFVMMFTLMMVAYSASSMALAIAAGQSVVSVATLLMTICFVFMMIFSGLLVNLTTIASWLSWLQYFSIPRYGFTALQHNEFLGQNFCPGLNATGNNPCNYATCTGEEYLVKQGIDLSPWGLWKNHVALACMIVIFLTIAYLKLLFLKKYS
The data set is described as follows: [3H]-mitoxantrone accumulation and efflux assay in ABCG2-overexpressing cells. It is filed as cell-based.

Data set [2] deals with T1, ATP-binding cassette subfamily G member 2 (ABCG2). Briefly: biochemical.

As to `COc1ccc2c3c([nH]c2c1)[C@H](C=C(C)C)N1C(=O)[C@@H]2CCCN2C(=O)[C@@H]1C3` [Fumitremorgin C], in data set [1], the “[3H]-mitoxantrone accumulation and efflux assay in ABCG2-overexpressing cells (1)” value is “efficacy of cabozantinib on increasing intracellular accumulation of [^3H]-MX in resistant cell line is comparable to that of FTC”.

With `COc1cc2nccc(Oc3ccc(NC(=O)C4(C(=O)Nc5ccc(F)cc5)CC4)cc3)c2cc1OC` [cabozantinib], in data set [2], the EC50 was found to be 734 nM.
